± gives the standard deviation of the averaged measurements.
Assays:
NILOTINIB = compound: Cc1cn(-c2cc(NC(=O)c3ccc(C)c(Nc4nccc(-c5cccnc5)n4)c3)cc(C(F)(F)F)c2)cn1 [NILOTINIB]; test: surviving fraction relative to DMSO-only wells; higher = less growth inhibition; details: exposure time: 5 days
In short: (§1)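 Continuous five-day exposure to inhibitors at 0.5, 1, 5, 10, 50, 100, 500 and 1000 nM started 24 hours after log-phase tumour cell lines were seeded at 250–500 cells per well in 384-well plates. Luminescence was read after 10 minutes at room temperature. Viability is given as surviving fraction, meaning CellTiter-Glo luminescence normalised to the median of DMSO-only wells.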

[1] = compound: CCc1cc(Nc2nccc(-c3c(-c4ccc(OC)c(C(=O)Nc5c(F)cccc5F)c4)nc4ccccn34)n2)c(OC)cc1N1CCC(N2CCN(S(C)(=O)=O)CC2)CC1; test: as above; details: exposure time: 5 days
In short: as §1

| Test System | surviving fraction (NILOTINIB; 0.5 nM) | surviving fraction (NILOTINIB; 1 nM) | surviving fraction (NILOTINIB; 5 nM) | surviving fraction (NILOTINIB; 10 nM) | surviving fraction (NILOTINIB; 50 nM) | surviving fraction (NILOTINIB; 100 nM) | surviving fraction (NILOTINIB; 500 nM) | surviving fraction (NILOTINIB; 1000 nM) | surviving fraction ([1]; 0.5 nM) | surviving fraction ([1]; 1 nM) | surviving fraction ([1]; 5 nM) | surviving fraction ([1]; 10 nM) | surviving fraction ([1]; 50 nM) | surviving fraction ([1]; 100 nM) | surviving fraction ([1]; 500 nM) | surviving fraction ([1]; 1000 nM) |
| --- | --- | --- | --- | --- | --- | --- | --- | --- | --- | --- | --- | --- | --- | --- | --- | --- |
| MDAMB453 BREAST | 1 ± 0.045 | 0.998 ± 0.097 | 1.03 ± 0.077 | 1.05 ± 0.088 | 0.91 ± 0.02 | 0.925 ± 0.016 | 0.895 ± 0.0087 | 0.874 ± 0.068 | 1.02 ± 0.037 | 1.09 ± 0.12 | 1.14 ± 0.043 | 1.08 ± 0.054 | 1.12 ± 0.029 | 1.16 ± 0.031 | 1.02 ± 0.061 | 1.07 ± 0.086 |
| MDAMB436 BREAST | 0.905 ± 0.076 | 1 ± 0.088 | 1 ± 0.017 | 0.964 ± 0.057 | 0.82 ± 0.087 | 0.915 ± 0.033 | 0.904 ± 0.03 | 0.78 ± 0.051 | 1.01 ± 0.065 | 0.997 ± 0.064 | 0.933 ± 0.063 | 0.965 ± 0.041 | 0.961 ± 0.11 | 0.967 ± 0.071 | 1.04 ± 0.07 | 0.887 ± 0.11 |
| SIHA CERVIX | 1.03 ± 0.029 | 1.02 ± 0.029 | 1 ± 0.024 | 1.11 ± 0.04 | 1.09 ± 0.036 | 1.061 ± 0.0087 | 1.05 ± 0.055 | 1.03 ± 0.037 | 1.01 ± 0.019 | 1.04 ± 0.071 | 1.06 ± 0.055 | 1.11 ± 0.046 | 1.05 ± 0.084 | 1.18 ± 0.053 | 1.02 ± 0.037 | 1.09 ± 0.034 |
| 143B BONE | 1.09 ± 0.076 | 1.07 ± 0.043 | 1.13 ± 0.1 | 1.11 ± 0.081 | 1.14 ± 0.12 | 1.14 ± 0.11 | 1.1 ± 0.11 | 1.11 ± 0.11 | 0.985 ± 0.033 | 0.959 ± 0.086 | 0.928 ± 0.13 | 1.03 ± 0.031 | 0.9995 ± 0.0035 | 0.996 ± 0.052 | 0.999 ± 0.0042 | 0.959 ± 0.023 |
| U2OS BONE | 1.03 ± 0.032 | 1.02 ± 0.037 | 1.11 ± 0.032 | 1.11 ± 0.06 | 1.07 ± 0.059 | 1.13 ± 0.088 | 1.11 ± 0.095 | 1.09 ± 0.095 | 0.992 ± 0.02 | 1 ± 0.017 | 1.06 ± 0.025 | 1.031 ± 0.0015 | 1.06 ± 0.023 | 1.06 ± 0.035 | 1.01 ± 0.013 | 0.975 ± 0.019 |
| COLO320DM LARGE INTESTINE | 1.12 ± 0.059 | 1.04 ± 0.086 | 1.05 ± 0.13 | 1.08 ± 0.061 | 1.06 ± 0.095 | 0.961 ± 0.022 | 0.949 ± 0.024 | 0.764 ± 0.04 | 1.08 ± 0.04 | 1.18 ± 0.11 | 1.17 ± 0.06 | 1.19 ± 0.071 | 1.19 ± 0.09 | 1.14 ± 0.095 | 1.11 ± 0.061 | 0.892 ± 0.041 |
| VCAP PROSTATE | 0.999 ± 0.1 | 1.03 ± 0.088 | 1.16 ± 0.13 | 1.06 ± 0.076 | 1.02 ± 0.075 | 0.966 ± 0.073 | 0.952 ± 0.14 | 0.862 ± 0.067 | 1.02 ± 0.1 | 1.05 ± 0.072 | 0.986 ± 0.12 | 1.07 ± 0.042 | 0.984 ± 0.091 | 1.05 ± 0.03 | 1.03 ± 0.055 | 0.9673 ± 0.0061 |
| YAMATO SYNOVIAL | 1.18 ± 0.14 | 1.22 ± 0.016 | 1.28 ± 0.064 | 1.26 ± 0.1 | 1 ± 0.05 | 0.94 ± 0.096 | 0.771 ± 0.024 | 0.658 ± 0.031 | 1.32 ± 0.085 | 1.34 ± 0.1 | 1.44 ± 0.085 | 1.28 ± 0.023 | 1.36 ± 0.066 | 1.42 ± 0.1 | 1.2 ± 0.19 | 0.873 ± 0.091 |
| HCC202 BREAST | 1.36 ± 0.11 | 1.08 ± 0.044 | 0.83 ± 0.15 | 0.987 ± 0.5 | 1.01 ± 0.22 | 1.09 ± 0.069 | 1.08 ± 0.052 | 0.912 ± 0.034 | 1.11 ± 0.32 | 1.27 ± 0.15 | 1.21 ± 0.21 | 1.14 ± 0.17 | 1.4 ± 0.18 | 1.25 ± 0.13 | 1.14 ± 0.15 | 1.18 ± 0.05 |
| SCC003 HEADNECK | 1.1 ± 0.048 | 1.03 ± 0.14 | 1.1 ± 0.037 | 1.04 ± 0.02 | 0.873 ± 0.38 | 1 ± 0.23 | 0.906 ± 0.24 | 0.995 ± 0.13 | 0.958 ± 0.069 | 1.13 ± 0.031 | 0.966 ± 0.024 | 1.1 ± 0.12 | 1.03 ± 0.14 | 1.1 ± 0.19 | 1.03 ± 0.019 | 1.08 ± 0.085 |
| KPD BONE | 1.04 ± 0.097 | 0.981 ± 0.038 | 1.06 ± 0.032 | 1.02 ± 0.026 | 1.03 ± 0.03 | 1.11 ± 0.055 | 0.925 ± 0.033 | 0.841 ± 0.028 | 0.907 ± 0.066 | 0.947 ± 0.071 | 1 ± 0.021 | 1.03 ± 0.062 | 0.989 ± 0.021 | 1.049 ± 0.0079 | 0.89 ± 0.081 | 0.849 ± 0.036 |
| HELA CERVIX | 1.05 ± 0.016 | 1.03 ± 0.053 | 1.09 ± 0.034 | 1 ± 0.033 | 1.09 ± 0.079 | 1.06 ± 0.073 | 1.15 ± 0.074 | 1.091 ± 0.0094 | 1.05 ± 0.035 | 1.07 ± 0.04 | 1.08 ± 0.027 | 1.09 ± 0.041 | 1.05 ± 0.05 | 1.07 ± 0.025 | 1.01 ± 0.066 | 0.97 ± 0.026 |
| C33A CERVIX | 0.986 ± 0.1 | 1.08 ± 0.05 | 1.07 ± 0.031 | 1.01 ± 0.06 | 1.13 ± 0.067 | 1.27 ± 0.031 | 1.2 ± 0.086 | 1.14 ± 0.12 | 0.755 ± 0.047 | 0.874 ± 0.086 | 1 ± 0.057 | 0.892 ± 0.11 | 1.01 ± 0.11 | 0.952 ± 0.031 | 0.832 ± 0.062 | 0.793 ± 0.051 |
| HU09 BONE | 0.958 ± 0.043 | 1.06 ± 0.1 | 0.999 ± 0.096 | 1.09 ± 0.051 | 0.861 ± 0.19 | 0.756 ± 0.067 | 0.481 ± 0.014 | 0.397 ± 0.075 | 0.897 ± 0.047 | 0.949 ± 0.12 | 1.08 ± 0.16 | 1.06 ± 0.032 | 1.03 ± 0.063 | 1.1 ± 0.048 | 0.88 ± 0.052 | 0.872 ± 0.085 |
| SCC47 HEADNECK | 1.07 ± 0.05 | 1.06 ± 0.045 | 1.15 ± 0.064 | 1.08 ± 0.025 | 1.041 ± 0.0046 | 1.04 ± 0.074 | 0.95 ± 0.037 | 0.932 ± 0.019 | 0.99 ± 0.038 | 0.992 ± 0.047 | 1.05 ± 0.047 | 1.06 ± 0.021 | 1 ± 0.075 | 1.08 ± 0.038 | 1.04 ± 0.028 | 1.03 ± 0.04 |
| SUM149.B1*.S BREAST | 1.09 ± 0.026 | 1.08 ± 0.051 | 1.163 ± 0.0038 | 1.12 ± 0.031 | 1.1 ± 0.046 | 1.13 ± 0.018 | 1.18 ± 0.035 | 1.11 ± 0.036 | 0.994 ± 0.024 | 1.05 ± 0.033 | 1.05 ± 0.051 | 1.1 ± 0.02 | 1.01 ± 0.047 | 1.081 ± 0.01 | 1.05 ± 0.082 | 1.04 ± 0.048 |
| LM7 BONE | 1.02 ± 0.027 | 0.9597 ± 0.0087 | 1.07 ± 0.03 | 1.01 ± 0.043 | 0.898 ± 0.084 | 0.957 ± 0.076 | 0.79 ± 0.02 | 0.76 ± 0.07 | 0.918 ± 0.051 | 0.885 ± 0.043 | 0.997 ± 0.08 | 0.97 ± 0.074 | 1.1 ± 0.11 | 1.01 ± 0.081 | 0.898 ± 0.013 | 0.758 ± 0.03 |
| OSHN BONE | 1.02 ± 0.017 | 1.01 ± 0.023 | 1.06 ± 0.025 | 1.01 ± 0.029 | 0.996 ± 0.034 | 1 ± 0.033 | 0.967 ± 0.02 | 0.96 ± 0.026 | 1.02 ± 0.018 | 1.04 ± 0.036 | 1.03 ± 0.038 | 1.06 ± 0.034 | 1.02 ± 0.033 | 1.05 ± 0.04 | 1.01 ± 0.023 | 1.04 ± 0.048 |
| SYO1 SYNOVIAL | 0.9541 ± 0.0069 | 0.979 ± 0.064 | 0.97 ± 0.062 | 0.974 ± 0.036 | 0.936 ± 0.036 | 0.976 ± 0.056 | 0.805 ± 0.062 | 0.743 ± 0.032 | 0.945 ± 0.041 | 0.992 ± 0.031 | 0.948 ± 0.048 | 0.945 ± 0.045 | 0.969 ± 0.034 | 1.02 ± 0.044 | 0.949 ± 0.03 | 0.895 ± 0.022 |
| OS25HAL BONE | 1.02 ± 0.034 | 0.973 ± 0.028 | 1.01 ± 0.037 | 0.997 ± 0.061 | 1.03 ± 0.019 | 0.944 ± 0.055 | 0.85 ± 0.05 | 0.795 ± 0.055 | 0.997 ± 0.011 | 1.02 ± 0.011 | 1.032 ± 0.01 | 1.04 ± 0.037 | 1.02 ± 0.015 | 1.04 ± 0.018 | 0.948 ± 0.055 | 0.944 ± 0.05 |

Reference: the supplement of paper PMC6045584
